Data reported in article PMC7602804 (Nutrients, 2020).

System: pepsin from porcine gastric mucosa, then trypsin and chymotrypsin from a bovine pancreas and elastase
Assay: synthetic peptide: pepsin in 0.15 M NaCl pH 2.5 (1:100 w/w, 60 min), then trypsin, chymotrypsin (1:100 w/w) and elastase (1:500 w/w) in 50 mM ammonium bicarbonate pH 7.6
Conditions: 37 °C, up to 270 min

Substance | fragment found
YDGRGDSVVYGLRSKSKKFRR (N-terminally acetylated and amidated at the C terminal) | YDGRGDSVVY, 5 min

System: Caco-2 monolayers
Assay: Apical to basolateral transport of milk peptides across Caco-2 monolayers (LC-MS/MS of basolateral medium)
Assay type: in vitro ADME, human
Conditions: Caco-2, 3 weeks on PET inserts 0.4 μm, TEER above 400 Ω cm^2; A-B; mix of 192 purified milk peptides 0.1 mg/mL apical; HBSS + 10 mM HEPES; 2.5 h; LC-MS/MS of basolateral medium; identified in two out of three experiments
Experimental: The human colorectal adenocarcinoma cell line, Caco-2, was obtained from DSMZ (Braunschweig, Germany). The cells were grown to 50–60% confluence in Dulbecco’s Modified Eagle Medium (DMEM) Glutamax cell culture medium, supplemented with 10% heat-inactivated fetal bovine serum, 100 units/mL of penicillin and 100 μg/mL of streptomycin (all from Invitrogen, Carlsbad, CA, USA) in a humidified 5% CO2/95% air atmosphere at 37 °C. The cells used in the experiments were between passages 30 and 40.
The Caco-2 cells used for transport studies were seeded in polyethylene terephthalate culture inserts, with a pore size of 0.4 μm and a growth area of 0.33 cm^2 at a density of approximately 25,000 cells/insert. The Caco-2 cells were grown for three weeks on the porous membrane before they were used for transepithelial transport. The integrity of the monolayers was confirmed by measuring the TEER using a Millicell ERS-2 volt ohmmeter. Only Caco-2 monolayers with TEER values above 400 Ω cm^2 were used for the transport analysis.
(§1) Following the TEER value measurement, the Caco-2 and PBEC monolayers were gently washed twice with phosphate-buffered saline, and the transport medium (Hanks’ Balanced Salt solution supplemented with 10 mM of HEPES) was added to the apical and basolateral compartments. The inserts were incubated for 15 min or 2.5 h with the purified milk peptides (0.1 mg/mL) or the synthetic PIGSENSEKTTMPLW peptide (2 µg/mL), after which medium from the apical and basolateral compartments were collected for liquid chromatography tandem mass spectrometry (LC-MS/MS) analysis. Inserts incubated with a medium without peptides served as the control in the transport experiments. Membrane integrity was validated by addition of D-[1-^14C]-Mannitol (3.5 µM, 56.8 mCi/mmol) (Perkin Elmer, Waltham, MA, USA) to the upper chamber of the culture inserts with or without milk peptides for 2.5 h. The passive permeability experiments were performed on four or five individual culture inserts. Basolateral samples were mixed with Ultima Gold liquid scintillation fluid (Perkin Elmer) and counted in a Tri-Carb 2810 TR scintillation counter (Perkin Elmer). The apparent permeability coefficient (Papp, cm/s) was determined as Papp = (dQ/dt)/(AC0) where dQ/dt is the steady state flux (cpm/s), A is the surface area of the cell culture insert membrane and C0 is the initial concentration in the apical compartment (cpm/mL).
LC-MS/MS analysis was performed on a TripleTOF 6600 mass spectrometer equipped with an Exigent nanoLC 415 system (AB Sciex, Les Ulis, France). All samples were micro-purified using 3 M Empore C18 discs packed in pipette tips. The lyophilized samples were dissolved in 0.1% formic acid, injected on a trap column (2 cm × 100 µm inner diameter) and separated on an analytical column packed in-house in a pulled emitter (15 cm × 75 µm inner diameter). All columns were packed with ReproSil-Pur C18-AQ 3 µm resin (courtesy of Dr. Marisch, Ammerbuch-Entringen, Germany). Peptides were eluted directly into the mass spectrometer with a linear gradient from 5 to 35% solvent B (0.1% formic acid in acetonitrile) for 20 min with a flowrate of 250 nL/min, followed after 10 min with 100% solvent B. Data files were converted to Mascot Generic Format using the Raw Converter (version 1.1.0.18) (http://fields.scripps.edu/rawconv/) or the AB Sciex MS Data Converter beta 1.1 (AB Sciex, Les Ulis, France). The generated peak lists were searched against the Bos taurus proteome (UniProt database, https://www.uniprot.org)) using an in-house Mascot search engine (Matrix Science, London, UK). The searches were made without specifying a protease and with oxidation (Met) and phosphorylation (ST) as variable modifications. Peptide tolerance was set to 10 ppm and MS/MS tolerance was set to 0.2 Da. […]

Substance | Peptide identified in the basolateral chamber of Caco-2 monolayers (transported)
AAPAGAAIQSR [endogenous bovine milk peptide from the polymeric immunoglobulin receptor] | not transported across the Caco-2 monolayers
PIGSENSEKTTMP [truncated derivative of the αS1-casein peptide …] | identified in the basolateral chamber
KNTMEHVSSSEESIISQETY [endogenous bovine milk peptide from αS2-casein] | identified in the basolateral chamber
PVLGPVRGPFPIIV [endogenous bovine milk peptide from β-casein] | not transported across the Caco-2 monolayers
AAPAGAAIQS [endogenous bovine milk peptide from the polymeric immunoglobulin receptor] | not transported across the Caco-2 monolayers
EVIESPPEINTVQVTSTAV [endogenous bovine milk peptide from κ-casein] | identified in the basolateral chamber

Same assay, conditions: Caco-2; A-B; synthetic PIGSENSEKTTMPLW 2 µg/mL apical; HBSS + 10 mM HEPES; 2.5 h; LC-MS/MS

Substance | Peptides identified in the basolateral chamber of Caco-2 monolayers after synthetic PIGSENSEKTTMPLW was added apically
PIGSENSEKTTMP [truncated derivative of the αS1-casein peptide …] | identified in the basolateral chamber of both monolayers
PIGSENSEKTT [truncated derivative of the αS1-casein peptide …] | identified in the basolateral chamber of both monolayers

System: pepsin, then trypsin, chymotrypsin and elastase
Assay: In vitro simulation of gastrointestinal digestion
Assay type: in vitro ADME
Conditions: 1 mg/mL, pepsin 1:100 w/w, 0.15 M NaCl pH 2.5, 60 min, 37 °C, chymotrypsin 1:100 and elastase 1:500 w/w, 50 mM ammonium bicarbonate pH 7.6, 37 °C, sampled 5, 30, 60 and 270 min, MALDI-MS (osteopontin: SDS-PAGE)
Experimental: The purified milk peptides and the synthesized PIGSENSEKTTMPLW and […] peptides were subjected to digestion, essentially as described in [5, 26] with few modifications. The peptides were dissolved in 0.15 M of NaCl with a pH of 2.5 at a concentration of 1 mg/mL and incubated with pepsin from porcine gastric mucosa in a 1:100 w/w enzyme to substrate ratio for 60 min at 37 °C. Before digestion with pancreatic proteases, the sample was lyophilized and washed twice in deionized water. Trypsin and chymotrypsin from a bovine pancreas (Worthington Biochemical Corporation, NJ, USA) (1:100 w/w) and elastase (Worthington) (1:500 w/w) were added in 50 mM of ammonium bicarbonate buffer (pH = 7.6) and the mixture was incubated for 60 min at 37 °C. In digests of the synthesized peptides, aliquots were sampled and analyzed after 5 min, 30 min, 60 min and 270 min incubation with the intestinal enzymes. Bovine milk osteopontin was purified as previously described and incubated with the digestive proteases to validate their activity. The digested milk peptides were separated by RP-HPLC on an Aeris C4 widepore column (Phenomenex, Værløse, Denmark) connected to a Shimadzu (Kyoto, Japan) HPLC system. The peptides were separated in 0.1% TFA (buffer A) and eluted with a gradient of 60% acetonitrile in 0.1% TFA (buffer B) at 40 °C. The gradient was developed over 59 min (0–5 min: 0% buffer B; 5–49 min: 0–98% buffer B; 49–59 min: 98% buffer B) at a flow rate of 0.85 mL/min. The peptides were detected by measuring the absorbance at 226 nm and analyzed by matrix-assisted laser desorption ionization time-of-flight mass spectrometry (MALDI-MS).
MALDI-MS was performed using a Bruker Autoflex III instrument (Bruker Daltonics, Bremen, Germany). The analysis was performed using a saturated solution of α-cyano-4-hydroxycinnamic acid. The instrument was operated in reflected positive ionization mode and calibrated in the mass range of 1000 to 3200 Da using a peptide calibration standard (Bruker Daltonics, Bremen, Germany). The theoretical peptide masses were calculated using the General Protein/Mass Analysis for Windows software (Lighthouse Data, Odense, Denmark).

Substance | Stability of the synthetic peptide / control in simulated gastrointestinal digestion
Ac-YDGRGDSVVYGLRSKSKKFRR-NH2 [reference compound] | cleaved after 5 min incubation with the proteases
osteopontin: bovine milk osteopontin, purified, incubated with the digestive proteases to validate their activity [reference compound] | cleaved by all the proteases

System: porcine brain endothelial cell (PBEC) monolayers
Assay: Apical to basolateral transport of milk peptides across porcine brain endothelial cell (PBEC) monolayers, blood-brain barrier model
Assay type: in vitro ADME
Conditions: PBEC; A-B; synthetic PIGSENSEKTTMPLW 2 µg/mL apical; HBSS + 10 mM HEPES; 2.5 h; LC-MS/MS
Experimental: Capillaries were isolated from the brain cortices of domestic pigs 5–6 months old as previously described. PBECs were cultured by plating the capillaries in T75 flasks coated with collagen IV (500 µg/mL) and fibronectin (100 µg/mL) in DMEM-F12 medium, supplemented with 10% plasma-derived serum (First Link, Wolverhampton, UK), heparin (15 U), 100 units/mL of penicillin and 100 µg/mL of streptomycin (PBEC growth medium), and cultured in an incubator with humidified 5% CO2/95% air at 37 °C. Puromycin (4 µg/mL) was added to the growth medium for the first three days to obtain a pure culture of PBECs.
Astrocyte conditioned medium was collected every third day from primary rat astrocytes, sterile filtered and frozen until use. Isolation of primary rat astrocytes and preparation of astrocyte conditioned media were carried out as described in [20].
PBECs were grown until 70–80% confluency as described above and then passaged onto polyester culture inserts with a pore size of 0.4 μm and a growth area of 1.12 cm^2 (Costar, Corning, NY, USA) at a density of 1.1 × 10^5 cells/cm^2 in the PBEC growth medium. In the basolateral chamber, the medium consisted of 1 mL of PBEC growth medium and 0.5 mL of astrocyte conditioned medium. The medium was supplemented with differentiation factors: 550 nM of hydrocortisone, 250 μM of 8-(4-chlorophenylthio)adenosine-3′,5′-cyclic monophosphate (cAMP) and 17.5 μM of RO-201724 two days after seeding. The next day, the integrity of the PBEC monolayer was confirmed by measuring the TEER. Only PBEC monolayers with TEER values higher than 800 Ω cm^2 were used for the transport analysis.
as §1
LC-MS/MS analysis was performed on a TripleTOF 6600 mass spectrometer equipped with an Exigent nanoLC 415 system (AB Sciex, Les Ulis, France). All samples were micro-purified using 3 M Empore C18 discs packed in pipette tips. The lyophilized samples were dissolved in 0.1% formic acid, injected on a trap column (2 cm × 100 µm inner diameter) and separated on an analytical column packed in-house in a pulled emitter (15 cm × 75 µm inner diameter). All columns were packed with ReproSil-Pur C18-AQ 3 µm resin (courtesy of Dr. Marisch, Ammerbuch-Entringen, Germany). […]

Substance | Peptides identified in the basolateral chamber of PBEC monolayers after synthetic PIGSENSEKTTMPLW was added apically
PIGSENSEKTTMP [truncated derivative of the αS1-casein peptide …] | identified in the basolateral chamber of both monolayers
PIGSENSEKTT [truncated derivative of the αS1-casein peptide …] | identified in the basolateral chamber of both monolayers

Same assay, conditions: primary PBEC on polyester inserts 0.4 μm, astrocyte conditioned medium, TEER higher than 800 Ω cm^2; A-B; mix of 192 milk peptides 0.1 mg/mL apical; HBSS + 10 mM HEPES; 2.5 h; LC-MS/MS; five independent studies; αS1 peptide 'or' its truncated peptides stated collectively

Substance | Peptide identified in the basal compartment (brain side) of the PBEC BBB model (transported)
AAPAGAAIQSR [endogenous bovine milk peptide from the polymeric immunoglobulin receptor] | identified in the basal compartment of the BBB model
PIGSENSEKTTMP [truncated derivative of the αS1-casein peptide …] | identified in all experiments
PIGSENSEKTT [truncated derivative of the αS1-casein peptide …] | identified in all experiments
PVLGPVRGPFPIIV [endogenous bovine milk peptide from β-casein] | identified in the basal compartment of the BBB model
AAPAGAAIQS [endogenous bovine milk peptide from the polymeric immunoglobulin receptor] | identified in the basal compartment of the BBB model
